Test results reported in PMC10272112 (Nature Communications, 2023).
Several values for one entry are separate records, joined by “and”; a condition that tells them apart may be missing. Equal entries are not always repeated.

Assays:
[1] = biological target: T1, TwinStrep-GST-HDAC10 (Homo sapiens, UniProt Q969S8); assay: HDAC10 TR-FRET assay; type: binding; conditions: reducing conditions (0.5 M TCEP)
T1 sequence (Q969S8 1-669): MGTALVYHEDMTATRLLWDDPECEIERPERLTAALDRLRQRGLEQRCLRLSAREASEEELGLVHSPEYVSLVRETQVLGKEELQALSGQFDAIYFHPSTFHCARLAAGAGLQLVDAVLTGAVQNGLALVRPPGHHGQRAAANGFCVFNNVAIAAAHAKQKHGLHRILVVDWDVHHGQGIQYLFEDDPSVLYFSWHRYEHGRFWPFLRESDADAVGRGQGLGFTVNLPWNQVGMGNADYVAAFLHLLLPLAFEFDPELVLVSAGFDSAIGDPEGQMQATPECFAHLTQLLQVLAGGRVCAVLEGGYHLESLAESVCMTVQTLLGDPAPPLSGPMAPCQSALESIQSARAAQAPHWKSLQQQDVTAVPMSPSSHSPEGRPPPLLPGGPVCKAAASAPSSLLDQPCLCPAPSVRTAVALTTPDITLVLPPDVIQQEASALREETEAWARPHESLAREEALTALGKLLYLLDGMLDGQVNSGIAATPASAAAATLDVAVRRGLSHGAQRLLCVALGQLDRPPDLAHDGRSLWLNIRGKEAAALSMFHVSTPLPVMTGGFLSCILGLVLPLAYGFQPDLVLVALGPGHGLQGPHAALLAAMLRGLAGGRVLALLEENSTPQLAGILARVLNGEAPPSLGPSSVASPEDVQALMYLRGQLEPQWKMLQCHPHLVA
Protocol: (§1) To validate the inhibition of HDACs by LA and LM and elaborate on the structure-activity relationship (SAR) of enantiomers as well as oxidized versus reduced forms of the molecules, we performed enzyme activity assays for recombinant HDAC1,2,3,6,8 as well as FRET-based binding assay for recombinant HDAC10.
Inhibitors with a D300e Digital Dispenser (Tecan). After drug dosing to the premixed assay reagents in buffer, plates were shaken (800 rpm orbital shaker, 30 s), centrifuged (300g, 1 min), and incubated at RT in the dark for 90 min. TR-FRET was measured with a CLARIOstar (BMG Labtech) plate reader, equipped with TR-FRET filters.

[2] = system: HDAC1,2,3,6,8; assay: HDAC-Glo assay (panel); type: biochemical, human; conditions: for HDAC inhibition by the oxidized form: absence of TCEP; for EC50: with TCEP, range over HDAC1,2,3,6,8, read-out: EC50 of HDAC inhibition, reduced form
Protocol: as §1
(§2) The experiments were performed according to ref. [48]. […] Drug dosing was performed with a D300e Digital Dispenser (Tecan). HDACs (7 ng/mL for HDAC1, 25 ng/mL for HDAC2, 200 ng/mL for HDAC3/Ncor2 complex, 100 ng/mL for HDAC6, 200 ng/mL for HDAC8) and inhibitors were incubated together at room temperature (RT) for 30 min. After the addition of the HDAC-Glo™ I/II reagent, plates were shaken (800 rpm orbital shaker, 30 s), centrifuged (300 g, 1 min), and incubated at RT for 30 min. Luminescence was detected with a CLARIOstar (BMG Labtech) plate reader.

[3] = biological target: T2, HDAC3/NcoR2 complex (Homo sapiens, UniProt O15379); assay: HDAC-Glo assay; type: biochemical; conditions: for EC50: read-out: log EC50 from dose-dependent HDAC inhibition curves (converted); for HDCA3 relative activity: sheet S2b
T2 construct: purchased BPS Bioscience 50003
Protocol: as §1, §2

T2 sequence (O15379 whole entry): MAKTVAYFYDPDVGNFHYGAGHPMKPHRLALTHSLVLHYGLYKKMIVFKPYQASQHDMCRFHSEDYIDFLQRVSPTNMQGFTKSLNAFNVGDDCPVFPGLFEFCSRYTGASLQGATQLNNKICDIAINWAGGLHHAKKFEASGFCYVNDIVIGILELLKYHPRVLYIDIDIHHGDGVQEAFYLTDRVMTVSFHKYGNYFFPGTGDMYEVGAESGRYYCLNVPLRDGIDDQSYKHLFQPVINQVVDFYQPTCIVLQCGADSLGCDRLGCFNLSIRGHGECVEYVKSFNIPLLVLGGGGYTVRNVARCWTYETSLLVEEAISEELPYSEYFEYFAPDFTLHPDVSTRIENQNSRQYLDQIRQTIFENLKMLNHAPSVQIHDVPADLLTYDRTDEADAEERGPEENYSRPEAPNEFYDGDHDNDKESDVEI
T2 sequence (Q9Y618 395-489 partner limits assumed): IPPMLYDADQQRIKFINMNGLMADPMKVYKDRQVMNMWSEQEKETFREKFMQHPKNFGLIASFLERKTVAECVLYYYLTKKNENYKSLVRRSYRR

## O=C(O)CCCCC1CCSS1 (racemic) [(R/S)-LA, (R/S)-lipoic acid]
[1]
  fold lower affinity to HDAC10 compared to Vorinostat: ~200 fold
[2]
  HDAC inhibition by the oxidized form: diminished activity
  EC50: 1 to 44 µM
[3]; 0.5 M TCEP, log10 M -3.30103, 3 technical replicates
  HDAC enzymatic activity (normalized luminescence): 7.256 and 7.282 and 7.339
[3]; 0.5 M TCEP, log10 M -3.82945, 3 technical replicates
  HDAC enzymatic activity (normalized luminescence): 17.0785 and 16.9479 and 17.22
[3]; 0.5 M TCEP, log10 M -4.35788, 3 technical replicates
  HDAC enzymatic activity (normalized luminescence): 49.3596 and 49.0858 and 50.0362
[3]; 0.5 M TCEP, log10 M -4.88629, 3 technical replicates
  HDAC enzymatic activity (normalized luminescence): 95.5948 and 97.1564 and 98.2162
[3]; 0.5 M TCEP, log10 M -5.41477, 3 technical replicates
  HDAC enzymatic activity (normalized luminescence): 101.96 and 103.73 and 105.005
[3]; 0.5 M TCEP, log10 M -5.94309, 3 technical replicates
  HDAC enzymatic activity (normalized luminescence): 91.2378 and 92.4271 and 93.0815
[3]; 0.5 M TCEP, log10 M -6.47756, 3 technical replicates
  HDAC enzymatic activity (normalized luminescence): 89.2879 and 93.1305 and 94.7241
[3]; 0.5 M TCEP, log10 M -6.87615, 3 technical replicates
  HDAC enzymatic activity (normalized luminescence): 90.3991 and 92.4306 and 92.5457
[3]; no TCEP, log10 M -3.30103, 3 technical replicates
  HDAC enzymatic activity (normalized luminescence): 64.3889 and 65.753 and 66.6157
[3]; no TCEP, log10 M -3.82945, 3 technical replicates
  HDAC enzymatic activity (normalized luminescence): 67.3361 and 68.514 and 68.6262
[3]; no TCEP, log10 M -4.35788, 3 technical replicates
  HDAC enzymatic activity (normalized luminescence): 79.5043 and 81.2871 and 81.6059
[3]; no TCEP, log10 M -4.88629, 3 technical replicates
  HDAC enzymatic activity (normalized luminescence): 87.8136 and 89.4197 and 90.6707
[3]; no TCEP, log10 M -5.41477, 3 technical replicates
  HDAC enzymatic activity (normalized luminescence): 88.1589 and 90.4647 and 92.122
[3]; no TCEP, log10 M -5.94309, 3 technical replicates
  HDAC enzymatic activity (normalized luminescence): 88.1501 and 88.386 and 90.7058
[3]; no TCEP, log10 M -6.47756, 3 technical replicates
  HDAC enzymatic activity (normalized luminescence): 88.6188 and 88.5508 and 90.3108
[3]; no TCEP, log10 M -6.87615, 3 technical replicates
  HDAC enzymatic activity (normalized luminescence): 97.6646 and 98.0479 and 97.5948
[3]
  EC50: 41.7 µM
[3]; log conc -3.30103
  HDCA3 relative activity: 4.168 and 4.13 and 4.176
[3]; log conc -3.82945
  HDCA3 relative activity: 8.909 and 8.94 and 8.919
[3]; log conc -4.35788
  HDCA3 relative activity: 25.3559 and 24.0859 and 24.4605
[3]; log conc -4.88629
  HDCA3 relative activity: 55.6369 and 56.3521 and 62.4157
[3]; log conc -5.41477
  HDCA3 relative activity: 100.947 and 102.17 and 103.057
[3]; log conc -5.94309
  HDCA3 relative activity: 105.476 and 106.045 and 106.401
[3]; log conc -6.47756
  HDCA3 relative activity: 89.5862 and 90.873 and 93.4553
[3]; log conc -6.87615
  HDCA3 relative activity: 104.127 and 108.406 and 102.786

## NC(=O)CCCCC1CCSS1 (racemic) [(R/S)-LM, (R/S)-lipoamide]
[1]
  fold lower affinity to HDAC10 compared to Vorinostat: 5 fold
[2]
  HDAC inhibition by the oxidized form: No activity at all
  EC50: 1 to 44 µM
[3]
  EC50: 15.6 µM
[3]; log conc -3.30103
  HDCA3 relative activity: 69.6623 and 70.4079 and 69.1097
[3]; log conc -3.82945
  HDCA3 relative activity: 75.2589 and 76.6842 and 75.5671
[3]; log conc -4.35788
  HDCA3 relative activity: 87.3214 and 88.0897 and 87.877
[3]; log conc -4.88629
  HDCA3 relative activity: 91.0887 and 91.1636 and 92.3406
[3]; log conc -5.41477
  HDCA3 relative activity: 88.6242 and 91.0601 and 91.2237
[3]; log conc -5.94309
  HDCA3 relative activity: 95.2751 and 94.3928 and 97.2335
[3]; log conc -6.47756
  HDCA3 relative activity: 90.1183 and 90.3135 and 93.1985
[3]; log conc -6.87615
  HDCA3 relative activity: 107.529 and 106.868 and 106.288
